Assay in all cases: cells
What all share (parameters): Anti-proliferation, 10-point dose response, CellTiter-Glo luminescence (MTT stated for KM12(Luc)), GI50 fitted in Prism
On the technique in general: ATP-based viability assays read luminescence as a measure of living cells.

One experiment concerns HL-60. The following applies: Homo sapiens, HL-60, 72 h, read-out: GI50 (µM) a. The procedure: (§1) To obtain the GI50 value of a substance, cell viability was measured using MTT (G4000, Promega, USA) for KM12(Luc) cell and Cell titer glo (G7572, Promega, USA) for other cell lines. For adherent cells, cells were seeded at 5,000 cells/well in a 96-well plate and treated with a substance one day after cell seeding. For suspension cells, 10,000 cells/well were seeded and the substance was treated after 4 h stabilization of cells. The substance was treated at 10 points of 1:3 serial dilution (0–100 µmol/L) for 72 h. For MTT assay, 15 µL dye solution was added to each well and incubated 4 h at 37°C. 100 µL of solubilization solution was added and followed 1 hr incubation. Absorbance at 570 nm of each well was recorded using EnVision microplate reader (Perkin Elmer). For Cell titer glo assay, Cell titer glo reagent was treated in each well and measured the luminescence by EnVision microplate reader (Perkin Elmer). Viable cells in each well were normalized by using 0.5% DMSO-treated wells (100%). The inhibitor dose−response curve was fitted and GI50 values were calculated using Prism 7.0 software (GraphPad). All assays were performed in duplicate and the standard deviation (SD) was determined from two independent experiments. KM12(Luc) was purchased from the JCRB cell bank. KM12 (Luc) was used within 6 months after purchase and the DNA profiles were confirmed using a short tandem repeat (STR) analysis by the Korean Cell Line Bank. KM12(Luc) cells were maintained in DMEM supplemented with 10% FBS and antibiotics. Parental Ba/F3 cells were purchased from DSMZ and were grown in RPMI1640 supplemented with 10% FBS and antibiotics in the presence of IL3, Transformed Ba/F3 cell lines were grown in the same media without IL3. Cells used in this study were negative for mycoplasma contamination. AN3-CA, HEC1A, U138, 8505C, MKN28, MKN45, A172, A375, Capan-1 HeLa, HEP3B, MCF-7 and MIA-paca-2 cells were maintained in DMEM (Welgene, Korea) supplemented with 10% FBS and antibiotics (Welgene, Korea). Otherwise, all cells were maintained in RPMI (Welgene, Korea) supplemented with 10% FBS and antibiotics (Welgene, Korea). To identify AZD4547 sensitive cell lines other than FGFR-mutant driven cancer cells, GI50 values were determined for AZD4547 against 64 different cancer cell lines, including AN3-CA used as a positive control ( Figure 1A and Table S1 ). […] Also, inhibitory activity of AZD4547 against DDR1 or FLT3 allows suppression of proliferation of U-2-OS and MV4-11 ([43]). Therefore, our attention focused on the inhibitory activity of AZD4547 against KM12(Luc) cell lines which have the TPM3-NTRK1 fusion gene. To exclude the possibility that the anti-proliferation activity of AZD4547 against KM12(Luc) is a common characteristic of FGFR inhibitors, we determined if BGJ398, a representative FGFR inhibitor, is also capable of suppressing proliferation of KM12(Luc) cells ( Figure 1B ).

In a further experiment the test system is RS4-11. The settings on record: Homo sapiens, RS4-11, 72 h, read-out: GI50 (µM) a. The procedure:
as §1

Another experiment concerns HT-29. The following applies: Homo sapiens, HT-29, 72 h, read-out: GI50 (µM) a. Here is the method: as §1
A further experiment deals with HCC-78. The following applies: Homo sapiens, HCC78, 72 h, read-out: GI50 (µM) a. Here is the method:
as §1

Another experiment relates to HeLa. The following applies: Homo sapiens, HeLa, 72 h, read-out: GI50 (µM) a. The procedure: as §1
In the next experiment the test system is SK-MEL-30. The following applies: Homo sapiens, SK-MEL-30, 72 h, read-out: GI50 (µM) a. Here is the method: as §1
In the next experiment the test system is NCI-H2009. The settings on record: Homo sapiens, NCI-H2009, 72 h, read-out: GI50 (µM) a. The procedure: as §1
The subject of the next experiment is U251. The settings on record: Homo sapiens, U-251, 72 h, read-out: GI50 (µM) a. Here is the method:
as §1

The subject of a further experiment is MDA-MB-468. The following applies: Homo sapiens, MDA-MB-468, 72 h, read-out: GI50 (µM) a. Here is the method:
as §1

For another experiment, the system named is NCI-H1975. The following applies: Homo sapiens, NCI-H1975, 72 h, read-out: GI50 (µM) a. Here is the method:
as §1

The subject of a further experiment is KM12-Luc. The settings on record: KM12-Luc, 72 h, read-out: GI50 (µM) a. Here is the method:
as §1

A further experiment concerns U-2-OS. The following applies: Homo sapiens, U2OS, 72 h, read-out: GI50 (µM) a. The procedure: as §1

SMILES strings stand for the structures.

In the case of `COc1cc(CCc2cc(NC(=O)c3ccc(N4C[C@@H](C)N[C@@H](C)C4)cc3)n[nH]2)cc(OC)c1` [AZD4547], the 50% growth inhibitory concentration (GI50) in the experiment on HL-60 was determined as 9.31 µM; with RS4-11, 3.24 µM; in the experiment with HT-29, 9.63 µM; in the experiment on HCC-78, 7.17 µM; in the experiment with HeLa, 4.38 µM; in the experiment with SK-MEL-30, 16.5 µM. For the same molecule, the concentration for 50% growth inhibition (GI50) in the experiment on NCI-H2009 was found to be 50 µM; in the experiment with U251 it was 11.6 µM; in the experiment on MDA-MB-468 it was 11.5 µM; in the experiment with NCI-H1975, 28.9 µM; with KM12-Luc it was 0.11 µM; with U-2-OS it was 0.43 µM.

For orientation: GI50 means the concentration giving 50% growth inhibition.

Source of the values: PMC8591201, “Anti-Tumor Activity of AZD4547 Against NTRK1 Fusion Positive Cancer Cells Through Inhibition of NTRKs” (Frontiers in Oncology, 2021).
